Results as given in patent US10071086B2, “1H-pyrazolo[3,4-b]pyridines and therapeutic uses thereof” (Samumed, LLC, priority 2012, dated 2018).
pIC50: −log10 of the molar value.

These compounds were tested on Wnt pathway (assay: Wnt activity reporter assay (SP5 promoter-luciferase in SW480 cells)). Conditions: Homo sapiens, SP5 promoter firefly luciferase reporter, read-out: Wnt inhibition.
Type: cell-based
Excerpt: The above synthesized compounds were screened using the assay procedure for Wnt activity described below.
Reporter cell lines can be generated by stably transducing cells of cancer cell lines (e.g., colon cancer) with a lentiviral construct that include a wnt-responsive promoter driving expression of the firefly luciferase gene.
Lentiviral constructs can be made in which the SP5 promoter, a promoter having eight TCF/LEF binding sites derived from the SP5 promoter, is linked upstream of the firefly luciferase gene. The lentiviral constructs can also include a hygromycin resistance gene as a selectable marker. The SP5 promoter construct can be used to transduce SW480 cells, a colon cancer cell line having a mutated APC gene that generates a truncated APC protein, leading to de-regulated accumulation of β-catenin.
Cultured SW480 cells bearing a reporter construct can be distributed at approximately 10,000 cells per well into 96 well or 384 well plates. Compounds from a small molecule compound library can then be added to the wells in half-log dilutions using a ten micromolar top concentration. A series of control wells for each cell type receive only buffer and compound solvent. Twenty-four to forty hours after the addition of compound, reporter activity for luciferase can be assayed, for example, by addition of the BrightGlo luminescence reagent (Promega) and the Victor3 plate reader (Perkin Elmer). Readings can be normalized to DMSO only treated cells, and normalized activities can then be used in the IC50 calculations.
Work on `O=C(Nc1cncc(-c2cnc3[nH]nc(-c4nc5c(-c6cccc(F)c6)cncc5[nH]4)c3c2)c1)C(F)(F)F` [Compound 1, 2,2,2-Trifluoro-N-(5-(3-(7-(3-fluorophenyl)-3H-imidazo[4,5-c]pyridin-2-yl)-1H-pyrazolo[3,4-b]pyridin-5-yl)pyridin-3-yl)acetamide] yielded a pIC50 of 8.22. In the case of `CN1CCN(c2cncc(-c3cnc4[nH]nc(-c5nc6c(-c7cccc(F)c7)cncc6[nH]5)c4c3)c2)CC1` [Compound 4, 3-(7-(3-Fluorophenyl)-3H-imidazo[4,5-c]pyridin-2-yl)-5-(5-(4-methylpiperazin-1-yl)pyridin-3-yl)-1H-pyrazolo[3,4-b]pyridine], the pIC50 was 6.48. With `CN(C)CCNc1cncc(-c2cnc3[nH]nc(-c4nc5c(-c6cccc(F)c6)cncc5[nH]4)c3c2)c1` [Compound 6, N1-(5-(3-(7-(3-Fluorophenyl)-3H-imidazo[4,5-c]pyridin-2-yl)-1H-pyrazolo[3,4-b]pyridin-5-yl)pyridin-3-yl)-N2,N2-dimethylethane-1,2-diamine] the pIC50 was 6.26. `CCNC(=O)c1cncc2[nH]c(-c3n[nH]c4ncc(-c5cccnc5)cc34)nc12` [Compound 8, N-Ethyl-2-(5-(pyridin-3-yl)-1H-pyrazolo[3,4-b]pyridin-3-yl)-3H-imidazo[4,5-c]pyridine-7-carboxamide] was tested, and the pIC50 was 5.08. Compound `Fc1cc(-c2cncc3[nH]c(-c4n[nH]c5ncc(-c6cccnc6)cc45)nc23)cc(N2CCOCC2)c1` [Compound 13, 4-(3-Fluoro-5-(2-(5-(pyridin-3-yl)-1H-pyrazolo[3,4-b]pyridin-3-yl)-3H-imidazo[4,5-c]pyridin-7-yl)phenyl)morpholine] has a pIC50 of 6.76. `CC(C)N1CCN(c2cc(F)cc(-c3cncc4[nH]c(-c5n[nH]c6ncc(-c7cccnc7)cc56)nc34)c2)CC1` [Compound 15, 3-(7-(3-Fluoro-5-(4-isopropylpiperazin-1-yl)phenyl)-3H-imidazo[4,5-c]pyridin-2-yl)-5-(pyridin-3-yl)-1H-pyrazolo[3,4-b]pyridine] was tested, and the pIC50 was 6.49. With `Fc1cc(CN2CCCC2)cc(-c2cncc3[nH]c(-c4n[nH]c5ncc(-c6cccnc6)cc45)nc23)c1` [Compound 16, 3-(7-(3-Fluoro-5-(pyrrolidin-1-ylmethyl)phenyl)-3H-imidazo[4,5-c]pyridin-2-yl)-5-(pyridin-3-yl)-1H-pyrazolo[3,4-b]pyridine] the pIC50 was 6.42. `CC(C)N(Cc1cc(F)cc(-c2cncc3[nH]c(-c4n[nH]c5ncc(-c6cccnc6)cc45)nc23)c1)C(C)C` [Compound 17, N-(3-Fluoro-5-(2-(5-(pyridin-3-yl)-1H-pyrazolo[3,4-b]pyridin-3-yl)-3H-imidazo[4,5-c]pyridin-7-yl)benzyl)-N-isopropylpropan-2-amine] showed a pIC50 of 6.26. `CC1CCN(c2cc(F)cc(-c3cncc4[nH]c(-c5n[nH]c6ncc(-c7cccnc7)cc56)nc34)c2)CC1` [Compound 19, 3-(7-(3-Fluoro-5-(4-methylpiperidin-1-yl)phenyl)-3H-imidazo[4,5-c]pyridin-2-yl)-5-(pyridin-3-yl)-1H-pyrazolo[3,4-b]pyridine] was tested, and the pIC50 was 6.30. Work on `CN(C)Cc1cncc(-c2cnc3[nH]nc(-c4nc5c(-c6cncc(F)c6)cncc5[nH]4)c3c2)c1` [Compound 20, 1-(5-(3-(7-(5-Fluoropyridin-3-yl)-3H-imidazo[4,5-c]pyridin-2-yl)-1H-pyrazolo[3,4-b]pyridin-5-yl)pyridin-3-yl)-N,N-dimethylmethanamine] yielded a pIC50 of 5.00. With `Fc1cc(-c2cncc3[nH]c(-c4n[nH]c5ncc(-c6cccnc6)cc45)nc23)cc(N2CCNCC2)c1` [Compound 21, 3-(7-(3-Fluoro-5-(piperazin-1-yl)phenyl)-3H-imidazo[4,5-c]pyridin-2-yl)-5-(pyridin-3-yl)-1H-pyrazolo[3,4-b]pyridine] the pIC50 was 6.78. In the case of `CN(C)Cc1cncc(-c2cnc3[nH]nc(-c4nc5c(-c6cc(F)cc(CNS(C)(=O)=O)c6)cncc5[nH]4)c3c2)c1` [Compound 22, N-(3-(2-(5-(5-((Dimethylamino)methyl)pyridin-3-yl)-1H-pyrazolo[3,4-b]pyridin-3-yl)-3H-imidazo[4,5-c]pyridin-7-yl)-5-fluorobenzyl)methanesulfonamide], the pIC50 was 7.49.
